Patent US20230404998A1, “Combination Therapies for Treating Cancer” (ASCENTAGE PHARMA (SUZHOU) CO., LTD., priority 2020, published 2023)

Legend:
Conditions in all cases: read-out: Anti-proliferation (IC50)
[1] = target: BaF3(Bcr-Abl) T315M (Homo sapiens, UniProt P00519, T315M, cells depend on it)
Description: (§1) The anti-proliferative effect was determined by a water-soluble tetrazolium (WST)-based assay using Cell Counting Kit-8 (CCK-8, #D3100L4057, Shanghai life ilab bio technology co., LTD, China). Cells were seeded in 96-well plates and treated with different concentrations of test articles. […] Each treatment was tested in triplicates. The plate was then cultured at 37° C. with 5% CO2 for 72 hours. At the end of treatments, 20 μl/well of CCK-8 reagent was directly added to each wells. The plate was then incubated at 37° C. with 5% CO2 for 2-4 h. The OD value was detected at 450 nm on a microplate reader (SpectraMax I3X, Molecular Devices, US). IC50 values were calculated with Graphpad Prism 7.0 software using nonlinear regression (curve fitting) type data analysis. For combination effect assay, the cells viability was normalized using the mean OD value of triplicated wells for the single agent control.

[2] = target: BaF3(Bcr-Abl) E459L (Homo sapiens, UniProt P00519, cells depend on it, form not given)
Description: as §1

[3] = target: BaF3(Bcr-Abl) M351T (Homo sapiens, UniProt P00519, M351T, cells depend on it)
Description: as §1

[4] = target: BaF3(Bcr-Abl) Y253H-E255V (Homo sapiens, UniProt P00519, Y253H/E255V, cells depend on it)
Description: as §1

[5] = target: BaF3(Bcr-Abl) E255K (Homo sapiens, UniProt P00519, E255K, cells depend on it)
Description: as §1

[6] = target: BaF3(Bcr-Abl) T316I-M244V (Homo sapiens, UniProt P00519, M244V/T315I, cells depend on it)
Description: as §1

[7] = target: BaF3(Bcr-Abl) T315I-255K (Homo sapiens, UniProt P00519, E255K/T315I, cells depend on it)
Description: as §1

[8] = target: BaF3(Bcr-Abl) T315I-Y253H (Homo sapiens, UniProt P00519, Y253H/T315I, cells depend on it)
Description: as §1

[9] = target: BaF3(Bcr-Abl) F317L-F359V (Homo sapiens, UniProt P00519, F317L/F359V, cells depend on it)
Description: as §1

[10] = target: BaF3(Bcr-Abl) Y253H-F359V (Homo sapiens, UniProt P00519, Y253H/F359V, cells depend on it)
Description: as §1

[11] = target: BaF3(Bcr-Abl) F317L (Homo sapiens, UniProt P00519, F317L, cells depend on it)
Description: as §1

[12] = target: BaF3(Bcr-Abl) T315I-F317L (Homo sapiens, UniProt P00519, T315I/F317L, cells depend on it)
Description: as §1

[13] = target: BaF3(Bcr-Abl) T315I-E459K (Homo sapiens, UniProt P00519, T315I/E459K, cells depend on it)
Description: as §1

[14] = target: BaF3(Bcr-Abl) T315I-E255V (Homo sapiens, UniProt P00519, E255V/T315I, cells depend on it)
Description: as §1

[15] = target: BaF3(Bcr-Abl) F317L-M351T (Homo sapiens, UniProt P00519, F317L/M351T, cells depend on it)
Description: as §1

[16] = target: BaF3(Bcr-Abl) T3151 (Homo sapiens, UniProt P00519, T315I, cells depend on it)
Description: as §1

[17] = target: BaF3(Bcr-Abl) 7253H (Homo sapiens, UniProt P00519, Y253H, cells depend on it)
Description: as §1

[18] = target: BaF3(Bcr-Abl) M244V (Homo sapiens, UniProt P00519, M244V, cells depend on it)
Description: as §1

[19] = target: BaF3(Bcr-Abl) T315I-G250E (Homo sapiens, UniProt P00519, G250E/T315I, cells depend on it)
Description: as §1

[20] = target: BaF3(Bcr-Abl) T315I-F359V (Homo sapiens, UniProt P00519, T315I/F359V, cells depend on it)
Description: as §1

[21] = target: BaF3(Bcr-Abl) G250E-V299L (Homo sapiens, UniProt P00519, G250E/V299L, cells depend on it)
Description: as §1

[22] = target: BaF3(Bcr-Abl) T315I-E453K (Homo sapiens, UniProt P00519, T315I/E453K, cells depend on it)
Description: as §1

[23] = target: BaF3(Bcr-Abl) Wild-type (Homo sapiens, UniProt P00519)
Description: as §1

[24] = target: BaF3(Bcr-Abl) T315I-H396R (Homo sapiens, UniProt P00519, T315I/H396R, cells depend on it)
Description: as §1

[25] = target: BaF3(Bcr-Abl) F311I (Homo sapiens, UniProt P00519, F311I, cells depend on it)
Description: as §1

[26] = target: BaF3(Bcr-Abl) E255V (Homo sapiens, UniProt P00519, E255V, cells depend on it)
Description: as §1

With `Cc1ccc(C(=O)Nc2ccc(CN3CCN(C)CC3)c(C(F)(F)F)c2)cc1C#Cc1cnc2[nH]ncc2c1` [HQP1351, 3-(2-(1H-pyrazolo[3,4-b]pyridin-5-yl)ethynyl)-4-methyl-N-(4-((4-methylpiperazin-1-yl)methyl)-3-(trifluoromethyl)phenyl)-benzamide] as the compound, how does the GI50 [1] read?
The GI50 was 217 ± 131 nM.

What about the GI50 [2] of the same compound?
The GI50 was 106 nM.

And the GI50 [3]?
The GI50 was 9 ± 1 nM.

What about the GI50 [4] of the same compound?
Its GI50 is 122 nM.

What about the GI50 [5] of the same compound?
The GI50 was 22 ± 13 nM.

And the GI50 [6]?
Its GI50 is 76 ± 53 nM.

And the GI50 [7]?
Its GI50 is 40 ± 5 nM.

And the GI50 [8]?
The GI50 was 114 ± 1 nM.

What about the GI50 [9] of the same compound?
Its GI50 is 25 ± 13 nM.

What about the GI50 [10] of the same compound?
Its GI50 is 311 ± 35 nM.

And the GI50 [11]?
The GI50 was 8 ± 3 nM.

What about the GI50 [12] of the same compound?
Its GI50 is 117 ± 23 nM.

What about the GI50 [13] of the same compound?
The GI50 was 109 ± 4 nM.

What about the GI50 [14] of the same compound?
Its GI50 is 26 ± 11 nM.

What about the GI50 [15] of the same compound?
Its GI50 is 32 ± 25 nM.

And the GI50 [16]?
The GI50 was 24 ± 10 nM.

What about the GI50 [17] of the same compound?
The GI50 was 7 ± 1 nM.

And the GI50 [18]?
Its GI50 is 41 ± 8 nM.

What about the GI50 [19] of the same compound?
The GI50 was 33 ± 2 nM.

And the GI50 [20]?
The GI50 was 20 ± 10 nM.

What about the GI50 [21] of the same compound?
Its GI50 is 14 ± 2 nM.

And the GI50 [22]?
The GI50 was 61 ± 27 nM.

And the GI50 [23]?
Its GI50 is 6 nM.

And the GI50 [24]?
The GI50 was 79 ± 54 nM.

What about the GI50 [25] of the same compound?
The GI50 was 23 ± 13 nM.

And the GI50 [26]?
The GI50 was 27 ± 11 nM.
